This passage reports IC50 results from patent US7858786B2, “Pyrimidines and pyrazines useful as modulators of ion channels” (Vertex Pharmaceuticals Incoropated, priority 2005, dated 2010).

Each structure is given as a SMILES string.

The assay concerns the target NaV1.8 (Homo sapiens, UniProt Q9Y5Y9). Put plainly: Activity against NaV 1.8 channel (NaV inhibition assay). It counts as cell-based. The protocol:
Compounds of the invention are useful as antagonists of voltage-gated sodium ion channels. Antagonist properties of test compounds were assessed as follows. Cells expressing the NaV of interest were placed into microtiter plates. After an incubation period, the cells were stained with fluorescent dyes sensitive to the transmembrane potential. The test compounds were added to the microtiter plate. The cells were stimulated with either a chemical or electrical means to evoke a NaV dependent membrane potential change from unblocked channels, which was detected and measured with trans-membrane potential-sensitive dyes. Antagonists were detected as a decreased membrane potential response to the stimulus. The optical membrane potential assay utilized voltage-sensitive FRET sensors described by Gonzalez and Tsien (See, Gonzalez, J. E. and R. Y. Tsien (1995) “Voltage sensing by fluorescence resonance energy transfer in single cells” Biophys J 69(4):1272-80, and Gonzalez, J. E. and R. Y. Tsien (1997) “Improved indicators of cell membrane potential that use fluorescence resonance energy transfer” Chem Biol 4(4):269-77) in combination with instrumentation for measuring fluorescence changes such as the Voltage/Ion Probe Reader (VIPRO®) (See, Gonzalez, J. E., K. Oades, et al. (1999) “Cell-based assays and instrumentation for screening ion-channel targets” Drug Discov Today 4(9):431-439).
24 hours before the assay on VIPR, CHO cells endogenously expressing a NaV1.2 type voltage-gated NaV are seeded in 96-well poly-lysine coated plates at 60,000 cells per well. Other subtypes are performed in an analogous mode in a cell line expressing the NaV of interest.
The following is an example of how NaV1.3 inhibition activity is measured using the optical membrane potential method #2. Other subtypes are performed in an analogous mode in a cell line expressing the NaV of interest.
HEK293 cells stably expressing NaV1.3 are plated into 96-well microtiter plates. After an appropriate incubation period, the cells are stained with the voltage sensitive dyes CC2-DMPE/DiSBAC2(3) as follows.
Patch clamp electrophysiology was used to assess the efficacy and selectivity of sodium channel blockers in dorsal root ganglion neurons. Rat neurons were isolated from the dorsal root ganglions and maintained in culture for 2 to 10 days in the presence of NGF (50 ng/ml) (culture media consisted of NeurobasalA supplemented with B27, glutamine and antibiotics). Small diameter neurons (nociceptors, 8-12 μm in diameter) have been visually identified and probed with fine tip glass electrodes connected to an amplifier (Axon Instruments). The “voltage clamp” mode has been used to assess the compound's IC50 holding the cells at −60 mV. In addition, the “current clamp” mode has been employed to test the efficacy of the compounds in blocking action potential generation in response to current injections. The results of these experiments have contributed to the definition of the efficacy profile of the compounds.
TTX-resistant sodium currents were recorded from DRG somata using the whole-cell variation of the patch clamp technique. Recordings were made at room temperature (˜22° C.) with thick walled borosilicate glass electrodes (WPI; resistance 3-4 MΩ) using an Axopatch 200B amplifier (Axon Instruments). After establishing the whole-cell configuration, approximately 15 minutes were allowed for the pipette solution to equilibrate within the cell before beginning recording. Currents were lowpass filtered between 2-5 kHz and digitally sampled at 10 kHz. Series resistance was compensated 60-70% and was monitored continuously throughout the experiment. The liquid junction potential (−7 mV) between the intracellular pipette solution and the external recording solution was not accounted for in the data analysis. Test solutions were applied to the cells with a gravity driven fast perfusion system (SF-77; Warner Instruments). […]
For the compound `CC(C)COC(=O)NC1CCN(c2nccc(-c3ccccc3O)n2)CC1` [Compound 1, [1-[4-(2-hydroxyphenyl)pyrimidin-2-yl]-4-piperidyl]aminoformic acid isobutyl ester], the IC50 (usually the concentration that gives 50% inhibition) was above 15 µM.
Under `O=C(NC1CCN(c2ccnc(-c3ccccc3F)n2)CC1)[C@H]1CCCO1` [Compound 2, N-[1-[2-(2-fluorophenyl)pyrimidin-4-yl]-4-piperidyl]tetrahydrofuran-2-carboxamide] stands above 15 µM.
Under `CC(C)(C)OC(=O)NC1CCN(c2cncc(-c3ccccc3F)n2)CC1` [Compound 3, [1-[6-(2-fluorophenyl)pyrazin-2-yl]-4-piperidyl]aminoformic acid tert-butyl ester] stands below 10 µM.
Regarding `CC(C)COC(=O)N1CCN(c2cc(-c3ccccc3C(F)F)ncn2)CC1` [Compound 4, 4-[6-[2-(difluoromethyl)phenyl]pyrimidin-4-yl]piperazine-1-carboxylic acid isobutyl ester], the IC50 was above 15 µM.
For `CC(C)C[C@@H](O)C(=O)N1CCN(c2nccc(-c3ccccc3C(F)F)n2)CC1` [Compound 6, 1-[4-[4-[2-(difluoromethyl)phenyl]pyrimidin-2-yl]piperazin-1-yl]-2-hydroxy-4-methyl-pentan-1-one] the value was 10 to 15 µM; for `CC(C)C(=O)N[C@@H]1CCN(c2cncc(-c3ccccc3F)n2)C1` [Compound 7, N-[1-[6-(2-fluorophenyl)pyrazin-2-yl]pyrrolidin-3-yl]-2-methyl-propanamide], above 15 µM; for `CC(C)(C)OC(=O)N[C@@H]1CCN(c2cncc(-c3ccccc3F)n2)C1` [Compound 8, [1-[6-(2-fluorophenyl)pyrazin-2-yl]pyrrolidin-3-yl]aminoformic acid tert-butyl ester], 10 to 15 µM.
Under `COCCOC(=O)NC1CCN(c2cncc(-c3ccccc3F)n2)CC1` [Compound 9, [1-[6-(2-fluorophenyl)pyrazin-2-yl]-4-piperidyl]aminoformic acid 2-methoxyethyl ester] stands below 10 µM.
On to `CC(C)COC(=O)N1CCN(c2ccnc(-c3ccccc3F)n2)CC1` [Compound 10, 4-[2-(2-fluorophenyl)pyrimidin-4-yl]piperazine-1-carboxylic acid isobutyl ester], for which the IC50 was above 15 µM.
Consider `COCCOC(=O)N[C@H]1CCN(c2cncc(-c3ccccc3C(F)F)n2)C1` [Compound 11, [1-[6-[2-(difluoromethyl)phenyl]pyrazin-2-yl]pyrrolidin-3-yl]aminoformic acid 2-methoxyethyl ester], for which the IC50 is above 15 µM.
As for `CC(C)C[C@@H](O)C(=O)N1CCN(c2ccnc(-c3ccccc3O)n2)CC1` [Compound 12, 2-hydroxy-1-[4-[2-(2-hydroxyphenyl)pyrimidin-4-yl]piperazin-1-yl]-4-methyl-pentan-1-one], the IC50 is 10 to 15 µM.
As to `CC(C)COC(=O)NC1CCN(c2ccnc(-c3ccccc3C(F)F)n2)CC1` [Compound 13, [1-[2-[2-(difluoromethyl)phenyl]pyrimidin-4-yl]-4-piperidyl]aminoformic acid isobutyl ester], the IC50 is below 10 µM.
In the case of `CC(C)C(=O)N[C@@H]1CCN(c2cncc(-c3ccccc3O)n2)C1` [Compound 14, N-[1-[6-(2-hydroxyphenyl)pyrazin-2-yl]pyrrolidin-3-yl]-2-methyl-propanamide], the IC50 is above 15 µM.
For `CC(C)COC(=O)N1CCN(c2cncc(-c3ccccc3C(F)F)n2)CC1` [Compound 15, 4-[6-[2-(difluoromethyl)phenyl]pyrazin-2-yl]piperazine-1-carboxylic acid isobutyl ester] the value was 10 to 15 µM; for `COCCOC(=O)N[C@@H]1CCN(c2cncc(-c3ccccc3O)n2)C1` [Compound 16, [1-[6-(2-hydroxyphenyl)pyrazin-2-yl]pyrrolidin-3-yl]aminoformic acid 2-methoxyethyl ester], above 15 µM.
For `CC(C)COC(=O)NC1CCN(c2cncc(-c3ccccc3O)n2)CC1` [Compound 18, [1-[6-(2-hydroxyphenyl)pyrazin-2-yl]-4-piperidyl]aminoformic acid isobutyl ester], the IC50 was below 10 µM.
Under `COCCOC(=O)NC1CCN(c2cncc(-c3ccccc3C(F)F)n2)CC1` [Compound 19, [1-[6-[2-(difluoromethyl)phenyl]pyrazin-2-yl]-4-piperidyl]aminoformic acid 2-methoxyethyl ester] stands below 10 µM; under `CC(C)COC(=O)N1CCN(c2cc(-c3ccccc3O)ncn2)CC1` [Compound 20, 4-[6-(2-hydroxyphenyl)pyrimidin-4-yl]piperazine-1-carboxylic acid isobutyl ester], 10 to 15 µM.
Take `CC(C)C[C@@H](O)C(=O)N1CCN(c2ccnc(-c3ccccc3C(F)F)n2)CC1` [Compound 21, 1-[4-[2-[2-(difluoromethyl)phenyl]pyrimidin-4-yl]piperazin-1-yl]-2-hydroxy-4-methyl-pentan-1-one]: the IC50 was above 15 µM.
On to `CC(C)OC(=O)N[C@@H]1CCN(c2cncc(-c3ccccc3F)n2)C1` [Compound 22, [1-[6-(2-fluorophenyl)pyrazin-2-yl]pyrrolidin-3-yl]aminoformic acid isopropyl ester], for which the IC50 is above 15 µM.
For `CC(C)COC(=O)N1CCN(c2cc(-c3ccccc3F)ncn2)CC1` [Compound 23, 4-[6-(2-fluorophenyl)pyrimidin-4-yl]piperazine-1-carboxylic acid isobutyl ester] the value was above 15 µM; for `CC(C)COC(=O)N1CCN(c2nccc(-c3ccccc3C(F)F)n2)CC1` [Compound 24, 4-[4-[2-(difluoromethyl)phenyl]pyrimidin-2-yl]piperazine-1-carboxylic acid isobutyl ester], 10 to 15 µM.
For `CC(C)COC(=O)N1CCN(c2nccc(-c3ccccc3O)n2)CC1` [Compound 25, 4-[4-(2-hydroxyphenyl)pyrimidin-2-yl]piperazine-1-carboxylic acid isobutyl ester] the value was below 10 µM.
As to `CC(C)C[C@@H](O)C(=O)N1CCN(c2cc(-c3ccccc3O)ncn2)CC1` [Compound 26, 2-hydroxy-1-[4-[6-(2-hydroxyphenyl)pyrimidin-4-yl]piperazin-1-yl]-4-methyl-pentan-1-one], the IC50 was above 15 µM.
Under `COCCOC(=O)N[C@@H]1CCN(c2cncc(-c3ccccc3F)n2)C1` [Compound 27, [1-[6-(2-fluorophenyl)pyrazin-2-yl]pyrrolidin-3-yl]aminoformic acid 2-methoxyethyl ester] stands above 15 µM; under `CC(C)C(=O)N[C@@H]1CCN(c2cncc(-c3ccccc3C(F)F)n2)C1` [Compound 28, N-[1-[6-[2-(difluoromethyl)phenyl]pyrazin-2-yl]pyrrolidin-3-yl]-2-methyl-propanamide], above 15 µM.
Regarding `O=C(NC1CCN(c2ccnc(-c3ccccc3O)n2)CC1)[C@H]1CCCO1` [Compound 29, N-[1-[2-(2-hydroxyphenyl)pyrimidin-4-yl]-4-piperidyl]tetrahydrofuran-2-carboxamide], the IC50 was above 15 µM.
For `CC(C)COC(=O)NC1CCN(c2nccc(-c3ccccc3C(F)F)n2)CC1` [Compound 31, [1-[4-[2-(difluoromethyl)phenyl]pyrimidin-2-yl]-4-piperidyl]aminoformic acid isobutyl ester] the value was below 10 µM; for `CC(C)COC(=O)N1CCN(c2ccnc(-c3ccccc3C(F)F)n2)CC1` [Compound 32, 4-[2-[2-(difluoromethyl)phenyl]pyrimidin-4-yl]piperazine-1-carboxylic acid isobutyl ester], above 15 µM; for `CC(C)COC(=O)N1CCN(c2cncc(-c3ccccc3O)n2)CC1` [Compound 33, 4-[6-(2-hydroxyphenyl)pyrazin-2-yl]piperazine-1-carboxylic acid isobutyl ester], below 10 µM.
